From ChEMBL document CHEMBL3885861, “Open TG-GATES”

Species on record: Rattus norvegicus
Experiment: Open TG-GATES - Regimen: Daily Repeat
Format: toxicity, organism-based, Sprague-Dawley
Parameters: regimen Daily Repeat, gender Male, age 6 weeks
Conditions: in vivo, po, route gavage; for APTT / Bas / Eos / Fbg / Hb / Ht / Lym / MCH / MCHC / MCV / Mono / Neu / Plat / RBC / Ret / WBC: tissue Blood; for KIDNEY_L / KIDNEY_R / KIDNEY_TOTAL: tissue Kidney; for ALP / ALT / AST / BUN / CRE / DBIL / GLC / IP / K / LDH / Na / PL / RALB / TBIL / TC / TG / TP / gamma-GTP: tissue Plasma
[1] = 0 mg/kg, 72 h, dose level Control, time 3 day
[2] = 0 mg/kg, […], dose level Control, time 7 day
[3] = 0 mg/kg, […], dose level Control, time 14 day
[4] = 0 mg/kg, […], dose level Control, time 28 day
[5] = 10 mg/kg, 72 h, dose level Low, time 3 day
[6] = 10 mg/kg, […], dose level Low, time 7 day
[7] = 10 mg/kg, […], dose level Low, time 14 day
[8] = 10 mg/kg, […], dose level Low, time 28 day

CN(C)CCC=C1c2ccccc2COc2ccccc21 [DOXEPIN]
TERMINAL_BW [1]: 226.4 g | APTT [1]: 17.1 s | Bas [1]: 0% | Eos [1]: 1% | Fbg [1]: 281.6 mg/dL | Hb [1]: 13.4 g/dL | Ht [1]: 38.6% | Lym [1]: 78.6% | MCH [1]: 21.4 pg | MCHC [1]: 34.7% | MCV [1]: 61.7 fL | Mono [1]: 2.8% | Neu [1]: 17% | Plat [1]: 122.6 x10_4/uL | RBC [1]: 625.6 x10_4/ul | Ret [1]: 7.8% | WBC [1]: 81.7 x10_2/uL | KIDNEY_L [1]: 1 g | KIDNEY_R [1]: 1 g | KIDNEY_TOTAL [1]: 2 g | ALP [1]: 1760.6 IU/L | ALT [1]: 46 IU/L | AST [1]: 71.2 IU/L | BUN [1]: 15.6 mg/dL | CRE [1]: 0.2 mg/dL | DBIL [1]: 0.018 mg/dL | GLC [1]: 192 mg/dL | IP [1]: 8 mg/dL | K [1]: 4.3 meq/L | LDH [1]: 71.8 IU/L | Na [1]: 140.8 meq/L | PL [1]: 143 mg/dL | RALB [1]: 2.7 g/dL | TBIL [1]: 0.036 mg/dL | TC [1]: 79.6 mg/dL | TG [1]: 91.2 mg/dL | TP [1]: 5.7 g/dL | gamma-GTP [1]: 1.4 IU/L | TERMINAL_BW [2]: 255.5 g | TERMINAL_BW [3]: 310.4 g | TERMINAL_BW [4]: 419.8 g | APTT [2]: 15.9 s | Bas [2]: 0.2% | Eos [2]: 1% | Fbg [2]: 293.2 mg/dL | Hb [2]: 13.5 g/dL | Ht [2]: 38.5% | Lym [2]: 75.4% | MCH [2]: 21.1 pg | MCHC [2]: 35.1% | MCV [2]: 60 fL | Mono [2]: 3.6% | Neu [2]: 19% | Plat [2]: 116.5 x10_4/uL | RBC [2]: 641.8 x10_4/ul | Ret [2]: 5.2% | WBC [2]: 81 x10_2/uL | APTT [3]: 16.8 s | Bas [3]: 0% | Eos [3]: 0.8% | Fbg [3]: 280.2 mg/dL | Hb [3]: 14 g/dL | Ht [3]: 40.1% | Lym [3]: 77.2% | MCH [3]: 21.3 pg | MCHC [3]: 34.8% | MCV [3]: 61.1 fL | Mono [3]: 2.8% | Neu [3]: 18.4% | Plat [3]: 116.1 x10_4/uL | RBC [3]: 657.4 x10_4/ul | Ret [3]: 4.8% | WBC [3]: 103.9 x10_2/uL | APTT [4]: 16.6 s | Bas [4]: 0% | Eos [4]: 1.2% | Fbg [4]: 278.6 mg/dL | Hb [4]: 14.7 g/dL | Ht [4]: 41.9% | Lym [4]: 74.6% | MCH [4]: 20.2 pg | MCHC [4]: 35.3% | MCV [4]: 57.3 fL | Mono [4]: 3% | Neu [4]: 20.8% | Plat [4]: 102.4 x10_4/uL | RBC [4]: 731.6 x10_4/ul | Ret [4]: 3% | WBC [4]: 78.6 x10_2/uL | KIDNEY_L [2]: 1.1 g | KIDNEY_R [2]: 1.1 g | KIDNEY_TOTAL [2]: 2.2 g | KIDNEY_L [3]: 1.2 g | KIDNEY_R [3]: 1.2 g | KIDNEY_TOTAL [3]: 2.4 g | KIDNEY_L [4]: 1.4 g | KIDNEY_R [4]: 1.4 g | KIDNEY_TOTAL [4]: 2.7 g | ALP [2]: 1795.6 IU/L | ALT [2]: 46 IU/L | AST [2]: 74.4 IU/L | BUN [2]: 18.8 mg/dL | CRE [2]: 0.2 mg/dL | DBIL [2]: 0.018 mg/dL | GLC [2]: 186.4 mg/dL | IP [2]: 7 mg/dL | K [2]: 4.2 meq/L | LDH [2]: 67.2 IU/L | Na [2]: 141.4 meq/L | PL [2]: 154 mg/dL | RALB [2]: 2.7 g/dL | TBIL [2]: 0.03 mg/dL | TC [2]: 85 mg/dL | TG [2]: 112.2 mg/dL | TP [2]: 5.8 g/dL | gamma-GTP [2]: 1.6 IU/L | ALP [3]: 1467 IU/L | ALT [3]: 42.8 IU/L | AST [3]: 67.4 IU/L | BUN [3]: 18 mg/dL | CRE [3]: 0.2 mg/dL | DBIL [3]: 0.014 mg/dL | GLC [3]: 191.6 mg/dL | IP [3]: 7 mg/dL | K [3]: 4.1 meq/L | LDH [3]: 65.6 IU/L | Na [3]: 143.4 meq/L | PL [3]: 157 mg/dL | RALB [3]: 2.7 g/dL | TBIL [3]: 0.024 mg/dL | TC [3]: 77.4 mg/dL | TG [3]: 172.8 mg/dL | TP [3]: 6 g/dL | gamma-GTP [3]: 1 IU/L | ALP [4]: 1293.8 IU/L | ALT [4]: 43.6 IU/L | AST [4]: 65.4 IU/L | BUN [4]: 17.2 mg/dL | CRE [4]: 0.2 mg/dL | DBIL [4]: 0.024 mg/dL | GLC [4]: 180.8 mg/dL | IP [4]: 6.3 mg/dL | K [4]: 3.9 meq/L | LDH [4]: 59.6 IU/L | Na [4]: 143.4 meq/L | PL [4]: 166 mg/dL | RALB [4]: 2.9 g/dL | TBIL [4]: 0.034 mg/dL | TC [4]: 80.2 mg/dL | TG [4]: 212.2 mg/dL | TP [4]: 6.4 g/dL | gamma-GTP [4]: 1 IU/L | TERMINAL_BW [5]: 218 g | APTT [5]: 16.2 s | Bas [5]: 0% | Eos [5]: 1% | Fbg [5]: 283.2 mg/dL | Hb [5]: 13.4 g/dL | Ht [5]: 39.3% | Lym [5]: 78% | MCH [5]: 21.5 pg | MCHC [5]: 34.2% | MCV [5]: 62.8 fL | Mono [5]: 2.8% | Neu [5]: 18% | Plat [5]: 107 x10_4/uL | RBC [5]: 625.6 x10_4/ul | Ret [5]: 7.4% | WBC [5]: 67.2 x10_2/uL | KIDNEY_L [5]: 0.9 g | KIDNEY_R [5]: 0.9 g | KIDNEY_TOTAL [5]: 1.9 g | ALP [5]: 1531.8 IU/L | ALT [5]: 42.2 IU/L | AST [5]: 70.8 IU/L | BUN [5]: 15.4 mg/dL | CRE [5]: 0.2 mg/dL | DBIL [5]: 0.024 mg/dL | GLC [5]: 191 mg/dL | IP [5]: 7.7 mg/dL | K [5]: 4.3 meq/L | LDH [5]: 74.2 IU/L | Na [5]: 141.6 meq/L | PL [5]: 156.8 mg/dL | RALB [5]: 2.7 g/dL | TBIL [5]: 0.044 mg/dL | TC [5]: 85.8 mg/dL | TG [5]: 100.8 mg/dL | TP [5]: 5.8 g/dL | gamma-GTP [5]: 1.4 IU/L | TERMINAL_BW [6]: 254.8 g | TERMINAL_BW [7]: 315.1 g | TERMINAL_BW [8]: 390 g | APTT [6]: 16.3 s | Bas [6]: 0% | Eos [6]: 1% | Fbg [6]: 283.4 mg/dL | Hb [6]: 13.5 g/dL | Ht [6]: 38.8% | Lym [6]: 79.8% | MCH [6]: 21.5 pg | MCHC [6]: 34.8% | MCV [6]: 61.8 fL | Mono [6]: 3% | Neu [6]: 15.6% | Plat [6]: 115.8 x10_4/uL | RBC [6]: 627.6 x10_4/ul | Ret [6]: 6% | WBC [6]: 88.3 x10_2/uL | APTT [7]: 16.8 s | Bas [7]: 0% | Eos [7]: 1.2% | Fbg [7]: 296.8 mg/dL | Hb [7]: 14.1 g/dL | Ht [7]: 40.5% | Lym [7]: 75.4% | MCH [7]: 21.5 pg | MCHC [7]: 34.7% | MCV [7]: 61.8 fL | Mono [7]: 3% | Neu [7]: 20% | Plat [7]: 106.2 x10_4/uL | RBC [7]: 656.4 x10_4/ul | Ret [7]: 4.7% | WBC [7]: 76.1 x10_2/uL | APTT [8]: 16.2 s | Bas [8]: 0% | Eos [8]: 1.4% | Fbg [8]: 283.8 mg/dL | Hb [8]: 14.6 g/dL | Ht [8]: 41.3% | Lym [8]: 81.4% | MCH [8]: 19.8 pg | MCHC [8]: 35.4% | MCV [8]: 56 fL | Mono [8]: 2% | Neu [8]: 14.6% | Plat [8]: 109.1 x10_4/uL | RBC [8]: 737.6 x10_4/ul | Ret [8]: 2.4% | WBC [8]: 71.4 x10_2/uL | KIDNEY_L [6]: 1.1 g | KIDNEY_R [6]: 1.1 g | KIDNEY_TOTAL [6]: 2.2 g | KIDNEY_L [7]: 1.2 g | KIDNEY_R [7]: 1.2 g | KIDNEY_TOTAL [7]: 2.4 g | KIDNEY_L [8]: 1.3 g | KIDNEY_R [8]: 1.3 g | KIDNEY_TOTAL [8]: 2.6 g | ALP [6]: 1775.6 IU/L | ALT [6]: 51.6 IU/L | AST [6]: 84.2 IU/L | BUN [6]: 19.2 mg/dL | CRE [6]: 0.2 mg/dL | DBIL [6]: 0.024 mg/dL | GLC [6]: 191.2 mg/dL | IP [6]: 7.5 mg/dL | K [6]: 4.3 meq/L | LDH [6]: 148.2 IU/L | Na [6]: 142 meq/L | PL [6]: 156 mg/dL | RALB [6]: 2.6 g/dL | TBIL [6]: 0.04 mg/dL | TC [6]: 81 mg/dL | TG [6]: 135.2 mg/dL | TP [6]: 5.8 g/dL | gamma-GTP [6]: 1 IU/L | ALP [7]: 1686.4 IU/L | ALT [7]: 42.2 IU/L | AST [7]: 67.6 IU/L | BUN [7]: 18.4 mg/dL | CRE [7]: 0.2 mg/dL | DBIL [7]: 0.012 mg/dL | GLC [7]: 193.4 mg/dL | IP [7]: 7.4 mg/dL | K [7]: 4.4 meq/L | LDH [7]: 70.2 IU/L | Na [7]: 142.6 meq/L | PL [7]: 150.2 mg/dL | RALB [7]: 2.7 g/dL | TBIL [7]: 0.024 mg/dL | TC [7]: 73 mg/dL | TP [7]: 6 g/dL | gamma-GTP [7]: 1.2 IU/L | ALP [8]: 1247.4 IU/L | ALT [8]: 37.8 IU/L | AST [8]: 62 IU/L | BUN [8]: 16.4 mg/dL | CRE [8]: 0.2 mg/dL | DBIL [8]: 0.02 mg/dL | GLC [8]: 173.6 mg/dL | IP [8]: 5.6 mg/dL | K [8]: 4 meq/L | LDH [8]: 53 IU/L | Na [8]: 144 meq/L | PL [8]: 147.6 mg/dL | RALB [8]: 2.8 g/dL | TBIL [8]: 0.03 mg/dL | TC [8]: 74 mg/dL | TG [8]: 154.8 mg/dL | TP [8]: 6.3 g/dL | gamma-GTP [8]: 1.2 IU/L
